Measured values as given in the NIST ThermoML archive (doi:10.1016/j.fluid.2009.02.007).

Assay: osmotic coefficient (dimensionless); mn = molality of the nth substance listed, in mol/kg
Conditions: 101 kPa, Liquid, Vapor pressure osmometry

CCCCn1cc[n+](C)c1.COS(=O)(=O)[O-] [1-butyl-3-methylimidazolium methyl sulfate] + O
osmotic coefficient
Conditions | 298.15 K | 308.15 K | 318.15 K | 328.15 K
m1 = 0.0132 | 0.923 | 0.937 | 0.968 | 0.987
m1 = 0.0225 | 0.895 | 0.921 | 0.958 | 0.977
m1 = 0.0328 | 0.884 | 0.897 | 0.94 | 0.966
m1 = 0.0434 | 0.863 | 0.885 | 0.896 | 0.959
m1 = 0.0634 | 0.837 | 0.872 | 0.882 | 0.896
m1 = 0.078 | 0.821 | 0.836 | 0.877 | 0.887
m1 = 0.1205 | 0.809 | 0.813 | 0.839 | 0.874
m1 = 0.157 | 0.791 | 0.809 | 0.839 | 0.858
m1 = 0.1944 | 0.78 | 0.802 | 0.814 | 0.857
m1 = 0.2801 | 0.767 | 0.779 | 0.802 | 0.84
m1 = 0.3552 | 0.741 | 0.758 | 0.775 | 0.81
m1 = 0.4687 | 0.721 | 0.749 | 0.762 | 0.8
m1 = 0.7057 | 0.71 | 0.74 | 0.756 | 0.786
m1 = 0.9552 | 0.698 | 0.716 | 0.732 | 0.76
m1 = 1.44 | 0.692 | 0.708 | 0.73 | 0.752
m1 = 2.177 | 0.693 | 0.7 | 0.726 | 0.743

CCCCn1cc[n+](C)c1.F[B-](F)(F)F [1-butyl-3-methylimidazolium tetrafluoroborate] + O
osmotic coefficient
Conditions | 298.15 K | 308.15 K | 318.15 K | 328.15 K
m1 = 0.012 | 1.023 | 1.009 | 1.006 | 0.994
m1 = 0.0223 | 0.994 | 0.974 | 0.986 | 0.978
m1 = 0.0369 | 0.987 | 0.959 | 0.955 | 0.965
m1 = 0.045 | 0.956 | 0.956 | 0.96 | 0.959
m1 = 0.0652 | 0.952 | 0.926 | 0.937 | 0.92
m1 = 0.0855 | 0.862 | 0.879 | 0.892 | 0.9
m1 = 0.1058 | 0.854 | 0.872 | 0.887 | 0.883
m1 = 0.1629 | 0.825 | 0.823 | 0.826 | 0.839
m1 = 0.2108 | 0.804 | 0.787 | 0.802 | 0.797
m1 = 0.2695 | 0.749 | 0.766 | 0.766 | 0.772
m1 = 0.3284 | 0.699 | 0.708 | 0.748 | 0.761
m1 = 0.4307 | 0.677 | 0.685 | 0.693 | 0.726
m1 = 0.533 | 0.648 | 0.666 | 0.673 | 0.685
m1 = 0.6375 | 0.619 | 0.622 | 0.634 | 0.647
m1 = 0.7233 | 0.575 | 0.587 | 0.61 | 0.632
m1 = 0.9322 | 0.523 | 0.545 | 0.564 | 0.589
m1 = 1.292 | 0.462 | 0.495 | 0.508 | 0.517
m1 = 2.066 | 0.392 | 0.396 | 0.412 | 0.415
